Measured values reported in patent publication US20250171438A1 (Agios Pharmaceuticals, Inc., priority 2022, published 2025).

The molecules below were run against T1, human PAH with the R408W mutation (Homo sapiens, UniProt P00439, R408W) (assay: Cell Based Phenylalanine Flux Assay). Conditions: A375 cells expressing human R408W PAH; 24 hrs compound incubation; 13C-Tyrosine by LC-MS; average where tested multiple times; read-out: AC50.
T1 construct: expressed in transfected cells
T1 sequence (P00439 1-452 R408W): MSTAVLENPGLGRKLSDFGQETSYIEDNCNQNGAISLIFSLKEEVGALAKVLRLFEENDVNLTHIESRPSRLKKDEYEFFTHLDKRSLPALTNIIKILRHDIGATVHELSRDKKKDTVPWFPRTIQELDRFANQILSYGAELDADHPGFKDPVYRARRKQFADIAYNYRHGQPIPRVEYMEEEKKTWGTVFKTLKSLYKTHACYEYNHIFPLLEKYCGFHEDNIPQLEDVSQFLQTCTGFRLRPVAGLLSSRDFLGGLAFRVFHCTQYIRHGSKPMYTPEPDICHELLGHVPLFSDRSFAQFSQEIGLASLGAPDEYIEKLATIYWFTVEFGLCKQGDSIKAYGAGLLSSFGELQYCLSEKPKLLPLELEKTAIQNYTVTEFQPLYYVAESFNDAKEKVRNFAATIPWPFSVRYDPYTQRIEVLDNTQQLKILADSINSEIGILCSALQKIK
Design: scale not given here
In the case of COc1cccc(CCCC(=O)N2CCc3[nH]cnc3[C@@H]2c2nc3ccccc3s2)c1 [Example 1014, (R)-1-(4-(benzo[d]thiazol-2-yl)-6,7-dihydro-1H-imidazo[4,5-c]pyridin-5(4H)-yl)-4-(3-methoxyphenyl)butan-1-one], the AC50 is reported as > 5 µM.
Cc1ccn2ncc(C(=O)N3CCc4[nH]cnc4[C@@H]3c3nc4ccccc4s3)c2c1 [Example 1126, (R)-(4-(benzo[d]thiazol-2-yl)-6,7-dihydro-1H-imidazo[4,5-c]pyridin-5(4H)-yl)(5-methylpyrazolo[1,5-a]pyridin-3-yl)methanone] gave an AC50 of 1 to 5 µM.
Work on O=C(c1nnc(-c2ccc(F)cc2F)o1)N1CCc2[nH]cnc2[C@@H]1c1nc2ccccc2s1 [Example 1812, (R)-(4-(benzo[d]thiazol-2-yl)-6,7-dihydro-1H-imidazo[4,5-c]pyridin-5(4H)-yl)(5-(2,4-difluorophenyl)-1,3,4-oxadiazol-2-yl)methanone] yielded an AC50 of 0.5 to 1 µM.
With CC1(C)CCC(c2ncc(C(=O)N3CCc4[nH]cnc4[C@H]3c3nc4ccccc4s3)s2)CC1 [Example 1353] the AC50 was < 0.5 µM.
For O=C(c1ccccc1)N1CCc2[nH]cnc2[C@H]1c1nc2ccccc2s1 [Example 1065], the AC50 was < 0.5 µM.
Molecule C[C@@H](O)c1nc(C(F)F)c(C(=O)N2CCc3[nH]cnc3[C@@H]2c2nc3c(F)cccc3s2)o1 [Example 1979, (4-(difluoromethyl)-2-((R)-1-hydroxyethyl)oxazol-5-yl)((R)-4-(4-fluorobenzo[d]thiazol-2-yl)-6,7-dihydro-1H-imidazo[4,5-c]pyridin-5(4H)-yl)methanone] has an AC50 of 0.5 to 1 µM.
O=C(c1ocnc1C(F)(F)F)N1CCCc2[nH]cnc2[C@@H]1c1nc2ccccc2s1 [Example 2132, (R)-(4-(benzo[d]thiazol-2-yl)-7,8-dihydroimidazo[4,5-c]azepin-5(1H,4H,6H)-yl)(4-(trifluoromethyl)oxazol-5-yl)methanone] showed an AC50 of 1 to 5 µM.
Cc1nnc(C(=O)N2CCc3[nH]cnc3[C@@H]2c2nc3c(F)cccc3s2)o1 [Example 1466, (R)-(4-(4-fluorobenzo[d]thiazol-2-yl)-6,7-dihydro-1H-imidazo[4,5-c]pyridin-5(4H)-yl)(5-methyl-1,3,4-oxadiazol-2-yl)methanone] showed an AC50 of 1 to 5 µM.
For CC(O)(c1nc(C(F)(F)F)c(C(=O)N2CCc3[nH]cnc3[C@H]2c2nc3ccccc3s2)o1)C1CC1 (single isomer, unassigned) [Example 1562], the AC50 was < 0.5 µM.
Fc1ccc(-c2nnc(N3CCc4[nH]cnc4[C@@H]3c3nc4ccccc4s3)o2)cc1 [Example 1492, (R)-2-(4-(benzo[d]thiazol-2-yl)-6,7-dihydro-1H-imidazo[4,5-c]pyridin-5(4H)-yl)-5-(4-fluorophenyl)-1,3,4-oxadiazole] gave an AC50 of 0.5 to 1 µM.
In the case of Cn1ncc(C(=O)N2CCc3[nH]cnc3[C@H]2c2nc3ccccc3s2)c1C(F)F [Example 1819], the AC50 is reported as 0.5 to 1 µM.
c1ccc2sc([C@H]3c4nc[nH]c4CCN3Cc3nccs3)nc2c1 [Example 1140, (R)-2-(5-(thiazol-2-ylmethyl)-4,5,6,7-tetrahydro-1H-imidazo[4,5-c]pyridin-4-yl)benzo[d]thiazole] was tested, and the AC50 was 1 to 5 µM.
With O=C(c1ccnn1-c1ccccn1)N1CCc2[nH]cnc2[C@H]1c1nc2ccccc2s1 [Example 1855] the AC50 was < 0.5 µM.
For O=C(c1cnn2ccc(Cl)cc12)N1CCc2[nH]cnc2[C@H]1c1nc2ccccc2s1 [Example 1107], the AC50 was < 0.5 µM.

Same assay, conditions: A375 cells expressing human R408W PAH; 24 hrs with compound; 13C-Tyrosine by LC-MS; average where tested multiple times
With Cn1cc(-c2nc(C(F)(F)F)c(C(=O)N3CCc4[nH]cnc4C3c3nc4ccccc4s3)o2)cn1 (centres unmarked) the AC50 was “E, E”.

Same assay, conditions: A375 cells expressing human R408W PAH; 24 hrs with compound; 13C-Tyrosine by LC-MS; average where tested multiple times; read-out: AC50
With N#Cc1nc(NCC(F)(F)F)oc1C(=O)N1CCc2[nH]cnc2C1c1nc2ccccc2s1 (centres unmarked) the AC50 was 1 to 5 µM.
For CS(=O)(=O)N1CC(C(=O)N2CCc3[nH]cnc3C2c2nc3ccccc3s2)C1 (centres unmarked), the AC50 was > 5 µM.
O=C(c1ncco1)N1CCc2[nH]cnc2C1c1nc2ccccc2s1 (centres unmarked) was tested, and the AC50 was > 5 µM.
In the case of O=C(c1nnc(CCCN2CC(F)C2)o1)N1CCc2[nH]cnc2C1c1nc2ccccc2s1 (centres unmarked), the AC50 is reported as > 5 µM.
NC(=O)Cn1ncc(C(=O)N2CCc3[nH]cnc3C2c2nc3c(F)cccc3s2)c1C(F)F (centres unmarked) showed an AC50 of 1 to 5 µM.
